Several values for one entry are separate records, joined by “and”; a condition that tells them apart may be missing. Equal entries are not always repeated. Inconclusive results and toxic doses are left out.
Tested on: BDF1 mice, C1498 leukemia ip, median survival T/C
Assay: NCI In Vivo Anticancer Drug Screen. Data for tumor model C1498 Myeloid Leukemia (intraperitoneal) in B6D2F1 (BDF1) mice
Conditions: endpoint: median survival time, higher = longer survival
Experimental: The antitumor activity of compounds was measured in mice bearing transplantable tumors. Survival or tumor size were measured and the results are expressed as the measurement made in the treated group (T) divided by the measurement made in the vehicle treated control group (C). The tumor model used in this assay is C1498 Myeloid Leukemia (intraperitoneal) in B6D2F1 (BDF1) mice

[1] = dose: 25.0 mg/kg/injection, schedule: Q01DX010 (ip), vehicle: saline
[2] = dose: 50.0 mg/kg/injection, schedule: Q01DX010 (ip), vehicle: saline
[3] = dose: 100.0 mg/kg/injection, schedule: Q01DX010 (ip), vehicle: saline
[4] = dose: 15.6 mg/kg/injection, schedule: Q01DX010 (ip), vehicle: saline
[5] = dose: 31.3 mg/kg/injection, schedule: Q01DX010 (ip), vehicle: saline
[6] = dose: 62.5 mg/kg/injection, schedule: Q01DX010 (ip), vehicle: saline
[7] = dose: 125.0 mg/kg/injection, schedule: Q01DX010 (ip), vehicle: saline
[8] = dose: 200.0 mg/kg/injection, schedule: Q01DX010 (ip), vehicle: saline
[9] = dose: 400.0 mg/kg/injection, schedule: Q01DX010 (ip), vehicle: saline
[10] = dose: 250.0 mg/kg/injection, schedule: Q01DX010 (ip), vehicle: saline

In the case of `Nc1nc(SCc2ccccc2)c2[nH]cnc2n1`, the T/C (dose: 8.0 mg/kg/injection, schedule: Q01DX010 (ip), vehicle: saline) is reported as 100 % of control, the T/C (dose: 16.0 mg/kg/injection, schedule: Q01DX010 (ip), vehicle: saline) is reported as 105 % of control and the T/C (dose: 32.0 mg/kg/injection, schedule: Q01DX010 (ip), vehicle: saline) is reported as 105 % of control. The T/C (dose: 64.0 mg/kg/injection, schedule: Q01DX010 (ip), vehicle: saline) was 90 % of control.
With `O=C(O)CCCc1ccc(N(CCCl)CCCl)cc1` the T/C (dose: 3.13 mg/kg/injection, schedule: Q01DX010 (ip), vehicle: saline) was 110 % of control and the T/C (dose: 6.25 mg/kg/injection, schedule: Q01DX010 (ip), vehicle: saline) was 120 % of control.
For `CCN(CC)CCNc1ccc(C)c2sc3ccccc3c(=O)c12`, the T/C [1] was 113 % of control and 118 % of control, the T/C [2] was 118 % of control and 122 % of control and the T/C [3] was 159 % of control and 172 % of control.
In the case of `CN(C)c1nc(N(C)C)nc(N(C)C)n1`, the T/C (dose: 18.8 mg/kg/injection, schedule: Q01DX010 (ip), vehicle: saline) is reported as 100 % of control and 109 % of control, the T/C (dose: 37.5 mg/kg/injection, schedule: Q01DX010 (ip), vehicle: saline) is reported as 104 % of control and 118 % of control and the T/C (dose: 75.0 mg/kg/injection, schedule: Q01DX010 (ip), vehicle: saline) is reported as 100 % of control and 109 % of control. For the same compound, the T/C (dose: 150.0 mg/kg/injection, schedule: Q01DX010 (ip), vehicle: saline) was 109 % of control and 118 % of control.
With `Cc1cc(N(CCCl)CCCl)ccc1N=Nc1ccccc1C(=O)O` the T/C (dose: 20.0 mg/kg/injection, schedule: Q01DX010 (ip), vehicle: saline) was 113 % of control.
For `Nc1nc(=S)c2[nH]cnc2[nH]1`, the T/C (dose: 1.25 mg/kg/injection, schedule: Q01DX010 (ip), vehicle: other) was 104 % of control, the T/C (dose: 2.5 mg/kg/injection, schedule: Q01DX010 (ip), vehicle: other) was 123 % of control and the T/C (dose: 5.0 mg/kg/injection, schedule: Q01DX010 (ip), vehicle: other) was 104 % of control. For the same compound, the T/C (dose: 10.0 mg/kg/injection, schedule: Q01DX010 (ip), vehicle: other) was 109 % of control, the T/C (dose: 27.0 mg/kg/injection, schedule: Q01DX001 (ip), vehicle: alkali diluted with saline) was 97 % of control and the T/C (dose: 40.0 mg/kg/injection, schedule: Q01DX001 (ip), vehicle: alkali diluted with saline) was 101 % of control. For the same compound, the T/C (dose: 60.0 mg/kg/injection, schedule: Q01DX001 (ip), vehicle: alkali diluted with saline) was 112 % of control and the T/C (dose: 90.0 mg/kg/injection, schedule: Q01DX001 (ip), vehicle: alkali diluted with saline) was 150 % of control.
In the case of `CCn1cnc2c(=S)nc[nH]c21`, the T/C [4] is reported as 105 % of control, the T/C [5] is reported as 100 % of control and the T/C [6] is reported as 105 % of control. The T/C [7] was 105 % of control.
For `Cc1cc2nc3c(=O)[nH]c(=O)nc-3n(CC(O)C(O)C(O)C(O)CO)c2cc1C` (stereo not given), the T/C [1] was 100 % of control, the T/C [2] was 100 % of control and the T/C [3] was 95 % of control. The T/C [8] was 91 % of control and the T/C [9] was 87 % of control.
For `CCN(CCNc1ccc(C)c2sc3cc(Cl)ccc3c(=O)c12)CC(C)O` (stereo not given), the T/C [5] was 86 % of control, the T/C [6] was 104 % of control and 90 % of control and the T/C [7] was 95 % of control and 86 % of control. The T/C [10] was 86 % of control.
For `CC(=O)O[C@]1(C(C)=O)CC[C@H]2[C@@H]3C[C@H](C)C4=CC(=O)C=C[C@]4(C)[C@@]3(F)[C@@H](O)C[C@@]21C`, the T/C (dose: 12.5 mg/kg/injection, schedule: Q01DX010 (sc), vehicle: steriod suspending solution) was 100 % of control, the T/C (dose: 25.0 mg/kg/injection, schedule: Q01DX010 (sc), vehicle: steriod suspending solution) was 100 % of control and the T/C (dose: 50.0 mg/kg/injection, schedule: Q01DX010 (sc), vehicle: steriod suspending solution) was 100 % of control. The T/C (dose: 100.0 mg/kg/injection, schedule: Q01DX010 (sc), vehicle: steriod suspending solution) was 100 % of control.
In the case of `CN(C)/N=N/c1nc[nH]c1C(N)=O`, the T/C [1] is reported as 108 % of control, the T/C [2] is reported as 112 % of control and the T/C [3] is reported as 158 % of control. For the same compound, the T/C [8] was 158 % of control and 159 % of control and the T/C [9] was 118 % of control.
`C#CCN(C)Cc1ccccc1` was tested, and the T/C [1] was 104 % of control, the T/C [2] was 100 % of control and 90 % of control and the T/C [3] was 90 % of control. For the same compound, the T/C [8] was 100 % of control and 90 % of control.
With `O[C@H](CN1CC1)[C@@H](O)CN1CC1` the T/C (dose: 62.5 micrograms/kg/injection, schedule: Q01DX010 (ip), vehicle: saline) was 123 % of control and the T/C (dose: 500.0 micrograms/kg/injection, schedule: Q01DX010 (ip), vehicle: saline) was 173 % of control.
With `COc1ccc2c(c1OC)C(=O)O[C@@H]2[C@H]1c2c(cc3c(c2OC)OCO3)CCN1C` the T/C [4] was 100 % of control, the T/C [5] was 95 % of control and 100 % of control (2×) and the T/C [6] was 87 % of control and 90 % of control (2×). The T/C [7] was 86 % of control and 87 % of control and 90 % of control and the T/C [10] was 90 % of control.

Source: PubChem BioAssay AID312 (DTP/NCI, 2004)
